# Measured values: patent US20260021098A1, “METHODS OF TREATMENT OF JAK INHIBITION RESPONSIVE CONDITIONS WITH DEUTERATED JAK INHIBITORS” (Sun Pharmaceutical Industries, Inc., priority 2024, published 2026)
# Assay: Drug-drug interaction study of Compound (I) and itraconazole, plasma concentration data
# Type: in vivo, human
# Conditions: 12 mg Compound (I) with 200 mg itraconazole (Test), healthy volunteers
smiles,measurement,value
"[2H]C1([2H])C([C@@H](CC#N)n2cc(-c3ncnc4[nH]ccc34)cn2)C([2H])([2H])C([2H])([2H])C1([2H])[2H] [Compound (I), (R)-3-(4-(7H-pyrrolo[2,3-d]pyrimidin-4-yl)-1H-pyrazol-1-yl)-3-(cyclopentyl-2,2,3,3,4,4,5,5-d8) propanenitrile]",t1/2,4.62 h
